Values after ≈ are worked out from the molar mass of the structure shown. Where two headings read alike, the source gives them in different places. Values belong to the compound of their own block, whether it stands above or below them.
Assays:
KDM5 = conditions: H3K4Me3 levels in PC9 cells; cited from earlier work
KDM5B [1] = target: T1, KDM5B (Homo sapiens, UniProt Q9UGL1); assay: cell-based
T1 sequence (Q9UGL1 26-772): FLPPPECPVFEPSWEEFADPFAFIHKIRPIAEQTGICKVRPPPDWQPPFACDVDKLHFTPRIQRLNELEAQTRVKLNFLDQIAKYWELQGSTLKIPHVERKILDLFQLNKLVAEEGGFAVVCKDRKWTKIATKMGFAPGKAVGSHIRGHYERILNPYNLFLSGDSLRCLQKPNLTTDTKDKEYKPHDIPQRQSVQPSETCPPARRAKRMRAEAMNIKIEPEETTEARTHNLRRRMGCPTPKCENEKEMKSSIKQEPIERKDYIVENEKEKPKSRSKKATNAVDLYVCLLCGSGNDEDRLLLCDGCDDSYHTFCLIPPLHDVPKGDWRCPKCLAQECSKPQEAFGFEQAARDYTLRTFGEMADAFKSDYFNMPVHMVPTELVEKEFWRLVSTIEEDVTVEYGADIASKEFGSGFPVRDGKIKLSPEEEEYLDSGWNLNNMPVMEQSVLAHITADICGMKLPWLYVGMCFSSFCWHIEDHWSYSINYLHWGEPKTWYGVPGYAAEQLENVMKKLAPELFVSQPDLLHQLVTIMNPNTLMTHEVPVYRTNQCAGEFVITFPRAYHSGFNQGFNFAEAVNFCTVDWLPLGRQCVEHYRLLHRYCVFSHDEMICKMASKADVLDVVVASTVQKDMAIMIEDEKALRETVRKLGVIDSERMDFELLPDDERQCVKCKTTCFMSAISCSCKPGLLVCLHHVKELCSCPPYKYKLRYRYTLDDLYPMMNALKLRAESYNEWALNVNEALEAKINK

KDM5B [2] = target: KDM5B (Homo sapiens, UniProt Q9UGL1); assay: cell-based; remark: listed apart in the source
Target sequence in this assay (Q9UGL1 whole entry): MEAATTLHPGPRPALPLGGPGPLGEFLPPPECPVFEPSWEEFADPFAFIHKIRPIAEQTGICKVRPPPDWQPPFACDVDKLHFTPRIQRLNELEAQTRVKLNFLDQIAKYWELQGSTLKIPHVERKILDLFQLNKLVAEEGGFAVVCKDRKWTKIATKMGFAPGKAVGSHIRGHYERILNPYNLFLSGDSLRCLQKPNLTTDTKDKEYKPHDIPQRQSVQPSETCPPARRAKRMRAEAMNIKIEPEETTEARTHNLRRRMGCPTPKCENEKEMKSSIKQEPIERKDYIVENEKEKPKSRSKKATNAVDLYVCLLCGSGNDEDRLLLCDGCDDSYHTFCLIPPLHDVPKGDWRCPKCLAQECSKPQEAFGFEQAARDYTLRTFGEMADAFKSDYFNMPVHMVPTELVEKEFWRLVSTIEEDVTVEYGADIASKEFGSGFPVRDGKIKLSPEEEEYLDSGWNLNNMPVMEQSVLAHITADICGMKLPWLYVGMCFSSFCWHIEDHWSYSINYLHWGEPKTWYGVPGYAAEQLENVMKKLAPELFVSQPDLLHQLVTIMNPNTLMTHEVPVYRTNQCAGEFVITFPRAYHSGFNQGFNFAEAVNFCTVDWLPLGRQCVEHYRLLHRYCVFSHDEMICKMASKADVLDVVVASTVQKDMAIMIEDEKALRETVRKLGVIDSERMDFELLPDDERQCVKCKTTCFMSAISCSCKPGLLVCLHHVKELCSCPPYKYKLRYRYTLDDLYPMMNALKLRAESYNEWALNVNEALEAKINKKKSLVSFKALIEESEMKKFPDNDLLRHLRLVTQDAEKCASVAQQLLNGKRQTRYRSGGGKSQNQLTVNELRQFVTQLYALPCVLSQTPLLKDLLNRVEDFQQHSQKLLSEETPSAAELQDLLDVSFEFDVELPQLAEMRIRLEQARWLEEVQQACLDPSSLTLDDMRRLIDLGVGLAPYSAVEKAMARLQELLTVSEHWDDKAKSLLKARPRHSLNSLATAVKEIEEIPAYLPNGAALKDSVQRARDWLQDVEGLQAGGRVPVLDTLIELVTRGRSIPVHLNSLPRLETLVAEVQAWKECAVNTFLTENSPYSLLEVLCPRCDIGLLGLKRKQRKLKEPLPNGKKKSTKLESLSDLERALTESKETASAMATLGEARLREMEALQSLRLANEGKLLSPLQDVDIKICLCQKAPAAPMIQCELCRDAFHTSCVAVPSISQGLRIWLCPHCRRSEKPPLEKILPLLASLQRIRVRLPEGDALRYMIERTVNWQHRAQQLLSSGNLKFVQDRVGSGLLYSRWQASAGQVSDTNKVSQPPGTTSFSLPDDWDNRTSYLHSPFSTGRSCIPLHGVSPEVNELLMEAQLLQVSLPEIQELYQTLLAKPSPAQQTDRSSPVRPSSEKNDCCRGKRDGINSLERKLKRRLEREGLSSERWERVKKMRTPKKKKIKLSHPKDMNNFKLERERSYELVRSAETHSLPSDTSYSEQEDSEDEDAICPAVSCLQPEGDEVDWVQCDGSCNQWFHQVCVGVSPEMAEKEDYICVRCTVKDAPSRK

LNCaP cells = assay: Cell uptake and stability in LNCaP cellular culture; type: in vitro ADME, human; conditions: 10 μM, up to 120 h
Method: Following 1, 6, 24, 48, 72 and 120 h incubation, media was collected from cells and immediately frozen at −80 °C. Cells were trypsinised, pelleted and then frozen at −80 °C until analysis.
Cell and tissue culture media extracts were analysed using a Dionex Ultimate 3000 UHPLC system coupled to a Thermo Scientific Q Exactive Plus orbitrap mass spectrometer (Thermo Fisher Scientific Inc., Waltham, USA). Separation of analytes was achieved using an Acquity UPLC HSS T3 column (1.8 μm, 100 × 2.1 mm) (Waters, Elstree, UK) at a temperature of 50 °C and a binary mobile phase gradient at a flow rate of 0.4 mL/min. […] Sample analysis was by electrospray atmospheric pressure ionization combined with full scan acquisition in positive ion mode. […] Full MS/dd-MS^2 (full MS scan followed by data dependent MS/MS) and Full MS/AIF (full MS scan followed by all ion fragmentation) workflows were used in combination. Identification/presence of metabolites was undertaken with the aid of the software Compound Discoverer (v2.0.0.303, Thermo Fisher Scientific Inc., Waltham, USA).

[3] = Kinetic aqueous solubility
[4] = Human plasma protein binding
[5] = In vitro intrinsic microsomal clearance, rat; conditions: microsomes
[6] = In vitro intrinsic microsomal clearance, mouse; conditions: microsomes
[7] = In vitro intrinsic microsomal clearance, human; conditions: microsomes

EC50 (KDM5B [1]): 0.3 µM
EC50 (KDM5B [2]): 0.6 µM
Structure (SMILES): CC(C)c1c(-c2cnn(C(C)(C)C)c2)[nH]c2c(C#N)cnn2c1=O [Compound 6]
EC50 (KDM5): 0.34 µM

Structure (SMILES): O=c1[nH]cnc2c(-n3cc(CCN4CCC5(CCc6ccccc65)CC4)cn3)nccc12 [Compound 19a, 8-(4-(2-(2,3-Dihydrospiro[indene-1,4′-piperidin]-1′-yl)ethyl)-1H-pyrazol-1-yl)pyrido[3,4-d]pyrimidin-4(3H)-one]
cell uptake (LNCaP cells): uptake of the parent compounds in a time-dependent manner
stability in cellular culture (metabolites in cells or media) (LNCaP cells): no metabolites detected
solubility kinetic [3]: 93.3 µM (≈ 39.8 µg/mL)
fraction unbound [4]: 0.11
microsomal CLint [5]: 19.8 µL/min/mg
microsomal CLint [6]: 7.5 µL/min/mg
microsomal CLint [7]: 24.7 µL/min/mg

Structure (SMILES): O=c1[nH]cnc2c(-n3cc(CCN4CCC5(CCc6ccccc65)CC4)cn3)cccc12 [Compound 41]
cell uptake (LNCaP cells): uptake of the parent compounds in a time-dependent manner
stability in cellular culture (metabolites in cells or media) (LNCaP cells): no metabolites detected
